This test deals with T1, human cathepsin K (Homo sapiens, UniProt P43235).
T1 construct: The proform of cathepsin K was converted to mature cathepsin K by brief exposure to pH 4; made in house; host or cells: baculovirus; Trichoplusia ni High Five cells (virus raised in Sf-9)
T1 sequence (P43235 115-329): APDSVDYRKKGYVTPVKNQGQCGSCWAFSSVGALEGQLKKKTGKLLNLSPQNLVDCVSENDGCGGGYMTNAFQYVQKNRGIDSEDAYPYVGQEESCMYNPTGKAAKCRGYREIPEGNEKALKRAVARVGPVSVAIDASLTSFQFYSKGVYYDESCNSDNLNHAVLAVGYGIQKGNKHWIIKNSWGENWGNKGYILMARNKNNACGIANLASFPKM
In words: Cathepsin K inhibition assay, fluorogenic substrate Cbz-Phe-Arg-AMC, progress curve method. The class given is biochemical. To be noted: Table 1; human recombinant enzyme, pH 5.5, 30° C., 10 μM substrate; read-out: hCat K Ki. As for the experimental part:
All assays for cathepsin K were carried out with human and rat recombinant enzyme. Assays for cathepsins S Et V were also carried out with human recombinant enzyme. Assays for human cathepsins B. H. and L were carried out with enzyme, purchased from Athens Research and Technology, Inc., prepared from human liver tissue. […] A stock substrate solution of Cbz-Phe-Arg-AMC was prepared at a concentration of 50 mM in dimethyl sulfoxide. This substrate was diluted into the assay for a final substrate concentration of 10 μM in the rat cathepsin K, human cathepsin K, and human cathepsin B assays; a final substrate concentration of 5 μM in the human cathepsin L assay; and a final substrate concentration of 2 μM in the human cathepsin V assay.
All assays contained 10% dimethyl sulfoxide. […] All assays were conducted at 30° C. Product fluorescence (excitation at 360 nm; emission at 440 nm, (except cathepsin H which used excitation at 340 nm; emission at 420 nm)) was monitored with a PerSeptive Biosystems Cytofluor II fluorescence plate reader. Product progress curves were generated over 2.3 h monitoring the formation of 7-amino-4-methylcoumarin product (or β-naphthalamide for cathepsin H).
Two liters of Spodoptera frugiperda (Sf-9) cells (ATCC) were grown in Grace's Supplemented medium (Life Technologies) supplemented with 2 g/L glucose, 10% a fetal bovine serum (HyClone) and 0.10% pluronic F-68 (Life Technologies). […] The cells continued to grow for 72 h post-infection, before the virus was harvested by centrifugation at 1400× g for 30 min.
One and one-half liters of Trichoplusia ni (T. ni) High Five (TM) cells [JRH Biosciences, Woodland, Calif. […] Media were separated from cells at a rate of 1 L/min using the Centritech 100 (TM) continuous-flow centrifuge (DuPont) operating at 200× g.
Protein Purification: Media (human and rat) were filtered through a Whatman 3 filter, and then loaded onto a 25 mL Poros HS II (26 mm×47 mm) cation exchange column equilibrated in 25 mM sodium acetate at pH 5.5 (equilibration buffer). The column was washed until the absorbance reached the baseline value, and then the protein was eluted with a linear gradient from 0-2 M sodium chloride in the equilibration buffer. Column fractions were analyzed by SDS-PAGE, N-terminal sequencing, and mass spectrometry. Fractions containing the proform of cathepsin K were pooled and frozen at −80° C. The proform was concentrated in an Amicon Centriprep 10 and fractionated with a Superdex 75 column (26 mm×600 mm, Pharmacia) equilibrated in 400 mM sodium chloride, 25 mM sodium acetate at pH 5.5.
Cathepsin K Activation: The proform of cathepsin K was converted to mature cathepsin K by brief exposure to pH 4 in the presence of 5 mM L-cysteine. Typically, 5 mM L-cysteine was added to 10 mL of approximately 1 mg/mL procathepsin K. One mL of this solution was diluted ten-fold into 450 mM sodium acetate at pH 4.0 containing 5 mM L-cysteine. This solution was reacted at 23° C. for 2 min before neutralization with 2 mL 1.8 M sodium acetate at pH 6.0. The neutralized sample was added to the remaining 9 mL of procathepsin K. The mixture was incubated at 4° C. for 2-3 days. The activated cathepsin K was chromatographed on a Poros HS II column as described above.
Potential inhibitors were evaluated using the progress curve method. Assays were carried out in the presence of variable concentrations of test compound. Reactions were initiated by addition of buffered solutions of inhibitor and substrate to enzyme. Data analysis was conducted according to one of two procedures depending on the appearance of the progress curves in the presence of inhibitors. […] Ki values were calculated from IC50 values using equation 2 assuming a competitive model. [formula]
For `CCCC[C@H](NC(=O)O[C@H](Cn1cnc(Cc2ccccc2)c1)C(C)(C)C)C(=O)C(=O)Nc1ccn[nH]1` [Example 34, (1S)-1-[(4-benzyl-1H-imidazol-1-yl)methyl]-2,2-dimethylpropyl(1S)-1-[oxo(1H-pyrazol-5-ylamino)acetyl]pentylcarbamate], the inhibitory constant (Ki) (in general, the dissociation constant of the complex between target and ligand, obtained from inhibition or displacement) was 0.01 to 1 nM.

As to `CCCC[C@H](NC(=O)O[C@H](Cc1nnc(-c2ccc(F)cc2)o1)C(C)(C)C)C(=O)C(=O)N[C@H](C)c1ccccc1` [Example 19, (1R)-1-{[5-(4-fluorophenyl)-1,3,4-oxadiazol-2-yl]methyl}-2,2-dimethylpropyl(1S)-1-(oxo{[(1R)-1-phenylethyl]amino}acetyl)pentylcarbamate], the Ki was in the range of 0.01 to 1 nM.

In the case of `CCCC[C@H](NC(=O)O[C@H](Cn1cnc(-c2ccccc2)c1)C(C)(C)C)C(=O)C(=O)N[C@H](C)c1ccccc1` [Example 12, (1S)-2,2-dimethyl-1-[(4-phenyl-1H-imidazol-1-yl)methyl]propyl(1S)-1-(oxo{[(1R)-1-phenylethyl]amino}acetyl)pentylcarbamate], the Ki was in the range of 0.01 to 1 nM.

`CCCC[C@H](NC(=O)O[C@@H](Cc1nnc(-c2ccc(C(F)(F)F)cc2)o1)C(C)(C)C)C(=O)C(=O)N[C@H](C)c1ccccc1` [Example 18, (1S)-2,2-dimethyl-1-({5-[4-(trifluoromethyl)phenyl]-1,3,4-oxadiazol-2-yl}methyl)propyl(1S)-1-(oxo{[(1R)-1-phenylethyl]amino}acetyl)pentylcarbamate]: the inhibition constant Ki is 100 to 10000 nM.

Take `CCCC[C@H](NC(=O)O[C@H](Cn1ccc(-c2ccc(C(F)(F)F)cc2)n1)C(C)(C)C)C(=O)C(=O)NCc1ccno1` [Example 36, (1S)-2,2-dimethyl-1-({3-[4-(trifluoromethyl)phenyl]-1H-pyrazol-1-yl}methyl)propyl(1S)-1-[[(5-isoxazolylmethyl)amino](oxo)acetyl]pentylcarbamate]: the Ki was 1 to 100 nM.

Take `CCCC[C@H](NC(=O)O[C@H](Cc1nnc(-c2ccc(C(F)(F)F)cc2)o1)C(C)(C)C)C(=O)C(=O)Nc1ccn[nH]1` [Example 3]: the Ki lay within 0.01 to 1 nM.

In the case of `CCCC[C@H](NC(=O)O[C@H](Cc1nnc(-c2ccc(F)cc2)o1)C(C)(C)C)C(=O)C(=O)Nc1ccccn1` [Example 21, (1R)-1-{[5-(4-fluorophenyl)-1,3,4-oxadiazol-2-yl]methyl}-2,2-dimethylpropyl(1S)-1-[oxo(2-pyridinylamino)acetyl]pentylcarbamate], the Ki lay within 100 to 10000 nM.

As to `CCCC[C@H](NC(=O)O[C@H](Cn1ccc(C(F)(F)F)n1)C(C)(C)C)C(=O)C(=O)Nc1ccn[nH]1` [Example 29, (1S)-2,2-dimethyl-1-{[3-(trifluoromethyl)-1H-pyrazol-1-yl]methyl}propyl(1S)-1-[oxo(1H-pyrazol-5-ylamino)acetyl]pentylcarbamate], the Ki was in the range of 0.01 to 1 nM.

In the case of `CCCC[C@H](NC(=O)O[C@H](Cc1nnc(-c2ccccc2)o1)C(C)(C)C)C(=O)C(=O)N[C@H](C)c1ccccc1` [Example 15, (1R)-2,2-dimethyl-1-[(5-phenyl-1,3,4-oxadiazol-2-yl)methyl]propyl(1S)-1-(oxo{[(1R)-1-phenylethyl]amino}acetyl)pentylcarbamate], the Ki lay in the range of 0.01 to 1 nM.

On to `CCCC[C@H](NC(=O)O[C@H](COc1ccc(OCc2ccccc2)cc1)C(C)(C)C)C(=O)C(=O)Nc1ccn[nH]1` [Example 47, (1S)-1-{[4-(benzyloxy)phenoxy]methyl}-2,2-dimethylpropyl(1S)-1-[oxo(1H-pyrazol-5-ylamino)acetyl]pentylcarbamate], for which the inhibition constant Ki was in the range of 0.01 to 1 nM.

`CCCC[C@H](NC(=O)O[C@H](Cc1nnc(-c2ccc(C(F)(F)F)cc2)o1)C(C)(C)C)C(=O)C(=O)N[C@H](C)c1ccccc1` [Example 17]: the Ki was in the range of 0.01 to 1 nM.

For the compound `CCCC[C@H](NC(=O)O[C@@H](Cn1ccc(-c2ccc(C(F)(F)F)cc2)n1)C(C)(C)C)C(=O)C(=O)Nc1ccn[nH]1` [Example 2, (1R)-2,2-dimethyl-1-({3-[4-(trifluoromethyl)phenyl]-1H-pyrazol-1-yl}methyl)propyl(1S)-1-[oxo(1H-pyrazol-3-ylamino)acetyl]pentylcarbamate], the Ki was 1 to 100 nM.

Consider `CCCC[C@H](NC(=O)O[C@H](Cc1nnc(-c2ccc(F)cc2)o1)C(C)(C)C)C(=O)C(=O)Nc1ccn[nH]1` [Example 23, (1R)-1-{[5-(4-fluorophenyl)-1,3,4-oxadiazol-2-yl]methyl}-2,2-dimethylpropyl(1S)-1-[oxo(1H-pyrazol-5-ylamino)acetyl]pentylcarbamate], for which the Ki fell in the range of 0.01 to 1 nM.

With `CCCC[C@H](NC(=O)O[C@H](Cc1nnc(-c2ccccc2)o1)C(C)C)C(=O)C(=O)N[C@H](C)c1ccccc1` [Example 10, (1R)-2-methyl-1-[(5-phenyl-1,3,4-oxadiazol-2-yl)methyl]propyl(1S)-1-(oxo{[(1R)-1-phenylethyl]amino}acetyl)pentylcarbamate], the Ki lay in the range of 0.01 to 1 nM.

Turning to `CCCC[C@H](NC(=O)O[C@@H](c1nnc(-c2ccncc2)o1)C(C)(C)C)C(=O)C(=O)Nc1ccn[nH]1` [Example 55, (1R)-2,2-dimethyl-1-[5-(4-pyridinyl)-1,3,4-oxadiazol-2-yl]propyl (1S)-1-[oxo(1H-pyrazol-5-ylamino)acetyl]pentylcarbamate], the Ki was in the range of 100 to 10000 nM.

Regarding `CCCC[C@H](NC(=O)O[C@H](Cc1nnc(-c2ccccc2)o1)C(C)(C)CC)C(=O)C(=O)N[C@H](C)c1ccccc1` [Example 8, (1R)-2,2-dimethyl-1-[(5-phenyl-1,3,4-oxadiazol-2-yl)methyl]butyl (1S)-1-(oxo{[(1R)-1-phenylethyl]amino}acetyl)pentylcarbamate], the Ki is 1 to 100 nM.

Turning to `CCCC[C@H](NC(=O)O[C@H](c1nc2ccccc2s1)C(C)(C)C)C(=O)C(=O)Nc1ccn[nH]1` [Example 31, (1S)-1-(1,3-benzothiazol-2-yl)-2,2-dimethylpropyl(1S)-1-[oxo(1H-pyrazol-5-ylamino)acetyl]pentylcarbamate], the Ki was 0.01 to 1 nM.

`CCCC[C@H](NC(=O)O[C@H](COc1ccc(C(N)=O)cc1)C(C)(C)C)C(=O)C(=O)Nc1ccn[nH]1` [Example 48, (1S)-1-{[4-(aminocarbonyl)phenoxy]methyl}-2,2-dimethylpropyl(1S)-1-[oxo(1H-pyrazol-5-ylamino)acetyl]pentylcarbamate]: the Ki fell in the range of 0.01 to 1 nM.

For the compound `CCCC[C@H](NC(=O)O[C@@H](c1nc2ccccc2s1)C(C)(C)C)C(=O)C(=O)Nc1ccn[nH]1` [Example 32, (1R)-1-(1,3-benzothiazol-2-yl)-2,2-dimethylpropyl(1S)-1-[oxo(1H-pyrazol-5-ylamino)acetyl]pentylcarbamate], the Ki was 100 to 10000 nM.

With `CCCC[C@H](NC(=O)O[C@H](Cc1nnc(-c2ccc(F)cc2)o1)C(C)(C)C)C(=O)C(=O)NCc1cccnc1` [Example 4, (1R)-1-{[5-(4-fluorophenyl)-1,3,4-oxadiazol-2-yl]methyl}-2,2-dimethylpropyl(1S)-1-{oxo[(3-pyridinylmethyl)amino]acetyl}pentylcarbamate], the Ki is 1 to 100 nM.

Consider `CCCC[C@H](NC(=O)O[C@H](Cn1ccc(-c2ccc(C(F)(F)F)cc2)n1)C(C)(C)C)C(=O)C(=O)Nc1nccs1` [Example 46, (1S)-2,2-dimethyl-1-({3-[4-(trifluoromethyl)phenyl]-1H-pyrazol-1-yl}methyl)propyl(1S)-1-[oxo(1,3-thiazol-2-ylamino)acetyl]pentylcarbamate], for which the Ki is 0.01 to 1 nM.

Values taken from patent publication US20050107616A1, “Alpha-ketoamide derivatives as cathepsin k inhibitors” (priority 2001, published 2005).
